According to PMC10066365, “Nemacol is a small molecule inhibitor of C. elegans vesicular acetylcholine transporter with anthelmintic potential” (Nature Communications, 2023):
Values joined by “and” are separate entries in the source; they are usually repeats but may differ in a detail not shown here. Equal values may be shown once.

Test system: C. elegans
Assay: C. elegans motor phenotype scoring on solid media (Punc/jerky-unc, coiled, paralyzed), wild-type young adults
Type: in vivo, Caenorhabditis elegans
Conditions: for atypical locomotion (number of animals) / no phene (number of animals) / paralyzed (number of animals) / any phene: mean % fraction of young adults exhibiting any phenotype (coiled, jerky-Unc or paralyzed) / coiled (number of animals): one hour; for atypical locomotion (number of animals) / no phene (number of animals) / paralyzed (number of animals) / coiled (number of animals): young adults, 20 animals per trial, single technical replicate; for any phene: mean % fraction of young adults exhibiting any phenotype (coiled, jerky-Unc or paralyzed): mean of three biological replicates; for Fraction Coiled / Fraction Jerky-Unc / Fraction No Phenotype / Fraction Parayzed: 60 min
[1] = 15 µM, N2 adult worms, Averages of 3 biological repeats
[2] = 15 µM, N2 adult worms, Bio Rep 1
[3] = 15 µM, N2 adult worms, Bio Rep 3
[4] = 15 µM, N2 adult worms, Bio rep 2
[5] = 30 µM, N2 adult worms, Averages of 3 biological repeats
[6] = 30 µM, N2 adult worms, Bio Rep 1
[7] = 30 µM, N2 adult worms, Bio Rep 3
[8] = 30 µM, N2 adult worms, Bio rep 2
[9] = 60 µM, N2 adult worms, Averages of 3 biological repeats
[10] = 60 µM, N2 adult worms, Bio Rep 1
[11] = 60 µM, N2 adult worms, Bio Rep 3
[12] = 60 µM, N2 adult worms, Bio rep 2
[13] = 120 µM, N2 adult worms, Averages of 3 biological repeats
[14] = 120 µM, N2 adult worms, Bio Rep 1
[15] = 120 µM, N2 adult worms, Bio Rep 3
[16] = 120 µM, N2 adult worms, Bio rep 2
[17] = 240 µM, N2 adult worms, Averages of 3 biological repeats
[18] = 240 µM, N2 adult worms, Bio Rep 1
[19] = 240 µM, N2 adult worms, Bio Rep 3
[20] = 240 µM, N2 adult worms, Bio rep 2
[21] = N2, 15 µM, adult worms, average of 3 biological repeats
[22] = N2, 30 µM, adult worms, average of 3 biological repeats
[23] = N2, 60 µM, adult worms, average of 3 biological repeats
[24] = N2, 120 µM, adult worms, average of 3 biological repeats
[25] = N2, 240 µM, adult worms, average of 3 biological repeats

O[C@@H]1CCCC[C@H]1N1CCC(c2ccccc2)CC1 (racemic) [vesamicol, reference compound]
atypical locomotion (number of animals) (3.75uM): 0
no phene (number of animals) (3.75uM): 20
paralyzed (number of animals) (3.75uM): 0
any phene: mean % fraction of young adults exhibiting any phenotype (coiled, jerky-Unc or paralyzed) (3.75uM): 0%
Fraction Coiled [1]: 0.00
Fraction Jerky-Unc [1]: 0.17
Fraction No Phenotype [1]: 0.83
Fraction Parayzed [1]: 0.00
Fraction Jerky-Unc [2]: 0.2778
Fraction No Phenotype [2]: 0.72
Fraction Parayzed [2]: 0
Fraction Coiled [3]: 0.00
Fraction Jerky-Unc [3]: 0.1667
Fraction No Phenotype [3]: 0.83
Fraction Parayzed [3]: 0
Fraction Coiled [4]: 0.00
Fraction Jerky-Unc [4]: 0.05556
Fraction No Phenotype [4]: 0.94
Fraction Parayzed [4]: 0
atypical locomotion (number of animals) (15uM): 0
coiled (number of animals) (15uM): 0
no phene (number of animals) (15uM): 20
paralyzed (number of animals) (15uM): 0
any phene: mean % fraction of young adults exhibiting any phenotype (coiled, jerky-Unc or paralyzed) (15uM): 0%
Fraction Coiled [5]: 0.00
Fraction Jerky-Unc [5]: 0.41
Fraction No Phenotype [5]: 0.59
Fraction Parayzed [5]: 0.00
Fraction Coiled [6]: 0.00
Fraction Jerky-Unc [6]: 0.3889
Fraction No Phenotype [6]: 0.61
Fraction Parayzed [6]: 0
Fraction Coiled [7]: 0.00
Fraction Jerky-Unc [7]: 0.4444
Fraction No Phenotype [7]: 0.56
Fraction Parayzed [7]: 0
Fraction Coiled [8]: 0.00
Fraction Jerky-Unc [8]: 0.3889
Fraction No Phenotype [8]: 0.61
Fraction Parayzed [8]: 0
Fraction Coiled [9]: 0.0566
Fraction Jerky-Unc [9]: 0.62
Fraction No Phenotype [9]: 0.32
Fraction Parayzed [9]: 0.00
Fraction Coiled [10]: 0.0556
Fraction Jerky-Unc [10]: 0.7222
Fraction No Phenotype [10]: 0.22
Fraction Parayzed [10]: 0
Fraction Coiled [11]: 0.06
Fraction Jerky-Unc [11]: 0.5294
Fraction No Phenotype [11]: 0.41
Fraction Parayzed [11]: 0
Fraction Coiled [12]: 0.0556
Fraction Jerky-Unc [12]: 0.6111
Fraction No Phenotype [12]: 0.33
Fraction Parayzed [12]: 0
atypical locomotion (number of animals) (60uM): 0 and 1 and 3 and 5 and 2
coiled (number of animals) (60uM): 1 and 0
no phene (number of animals) (60uM): 19 and 18 and 17 and 15
paralyzed (number of animals) (60uM): 0
any phene: mean % fraction of young adults exhibiting any phenotype (coiled, jerky-Unc or paralyzed) (60uM): 11.6667%
Fraction Coiled [13]: 0.0556
Fraction Jerky-Unc [13]: 0.74
Fraction No Phenotype [13]: 0.17
Fraction Parayzed [13]: 0.037
Fraction Coiled [14]: 0.11
Fraction Jerky-Unc [14]: 0.7778
Fraction No Phenotype [14]: 0.0556
Fraction Parayzed [14]: 0.05556
Fraction Coiled [15]: 0.00
Fraction Jerky-Unc [15]: 0.7222
Fraction No Phenotype [15]: 0.28
Fraction Parayzed [15]: 0
Fraction Coiled [16]: 0.0556
Fraction Jerky-Unc [16]: 0.7222
Fraction No Phenotype [16]: 0.17
Fraction Parayzed [16]: 0.05556
Fraction Coiled [17]: 0.11
Fraction Jerky-Unc [17]: 0.80
Fraction No Phenotype [17]: 0.0741
Fraction Parayzed [17]: 0.0185
Fraction Coiled [18]: 0.11
Fraction Jerky-Unc [18]: 0.8333
Fraction No Phenotype [18]: 0.00
Fraction Parayzed [18]: 0.05556
Fraction Coiled [19]: 0.11
Fraction Jerky-Unc [19]: 0.7222
Fraction No Phenotype [19]: 0.17
Fraction Parayzed [19]: 0
Fraction Coiled [20]: 0.11
Fraction Jerky-Unc [20]: 0.8333
Fraction No Phenotype [20]: 0.0556
Fraction Parayzed [20]: 0
EC50 (Caenorhabditis elegans, 1 h): 38.6 ± 3.5 µM
Fraction Coiled [21]: 0.00
Fraction Jerky-Unc [21]: 0.17
Fraction No Phenotype [21]: 0.83
Fraction Parayzed [21]: 0.00
Fraction Coiled [22]: 0.00
Fraction Jerky-Unc [22]: 0.41
Fraction No Phenotype [22]: 0.59
Fraction Parayzed [22]: 0.00
Fraction Coiled [23]: 0.0566
Fraction Jerky-Unc [23]: 0.62
Fraction No Phenotype [23]: 0.32
Fraction Parayzed [23]: 0.00
Fraction Coiled [24]: 0.0556
Fraction Jerky-Unc [24]: 0.74
Fraction No Phenotype [24]: 0.17
Fraction Parayzed [24]: 0.037
Fraction Coiled [25]: 0.11
Fraction Jerky-Unc [25]: 0.80
Fraction No Phenotype [25]: 0.0741
Fraction Parayzed [25]: 0.0185
fold difference in C. elegans EC50, Vesamicol vs Nemacol-1 (Vesamicol EC50 higher, Nemacol-1 more potent): 5.4 fold
